Key:
breast cancer MCF7 cells = test: Cell viability (CCK8) in breast cancer MCF7 cells; type: cell-based, human; conditions: different concentrations, compared with parent drug 5-FU
Experimental: FIGS. 2A and 2B illustrate the anticancer effects and selectivity of 5-FU and compounds 1a-1c. Cell viability was analyzed after the breast cancer MCF7 cells (FIG. 2A) and normal MEC1 cells (FIG. 2B) were treated with 5-FU or compounds 1a-1c at different concentrations. Data are presented as mean±SD, n=4.
Cell Counting Kit-8 (CCK8, Dojingo) was used to carry out the cytotoxicity assessment of the prodrugs. Seeded cells were treated with varying compound concentrations for 48-72 h and the CCK8 kit was used to measure the cytotoxicity. For NAC experiments, this ROS scavenger was pre-incubated with the cells for 2 h and then co-incubated with the prodrugs for additional 48 hours unless otherwise noted.
The anticancer effects of new compounds 1a and 1b were tested using the breast cancer MCF7 cells and normal MEC1 cells (FIGS. 2A and 2B). […] These differential killing results highlight the specificity of new prodrugs 1a-1b for cancer cells over normal cells. […] To further verify the role of ROS in the drug release process, the MTT assays was performed, using MCF7 cells pretreated with the ROS scavenger N-Acetyl-Cysteine (NAC).

[1] = target: dihydropyrimidine dehydrogenase (DPD) (Homo sapiens, UniProt Q12882); conditions: injected 5-FU, degradation into 5-FUH2; cited from earlier work
γH2AX = γH2AX immunofluorescence assay in MCF7 cells; type: cell-based, human; conditions: 48 h
Experimental: (§1) FIGS. 4A and 4B illustrate the effect of compounds 1a-1b in apoptosis. FIG. 4A: immunofluorescence of DNA cleavage protein γH2Ax was enhanced by using 5-FU and prodrugs 1a-1b. FIG. 4B: immunoblot analysis of MCF-7 cells treated with 5-FU, prodrugs 1a-1b for apoptosis markers PARP1 and Caspase 3. The cells were treated for 48 h with the indicated concentrations of compounds.
Immunohistochemistry Analysis. MCF7 cells were seeded on poly-D-lysine coated slides. Compounds were incubated with cells for 48 h. Following treatment, cells were washed once in PBS and fixed in 10% formalin for 20 min at room temperature. Methanol was used to permeabilize the cells for 10 min and PBS wash was carried out. Bovine serum albumin was used for 1 h blocking and primary antibodies for γH2AX (SCBT, #sc-517348) was incubated with the cells overnight. Fluorescent secondary antibodies were incubated with cells along with DAPI. Cells were washed trice with PBS and the slides were mounted prior to confocal imaging.
(§2) To understand the mechanism of action of prodrugs 1a-1b, the impact of the treatment of compounds 1a-1b on the γH2AX formation in MCF7 cells were determined using immunofluorescence assay (FIG. 4A). […] The effects of prodrugs 1a-1b on the PARP1 and caspase 3 cleavage in MCF7 cells were also determined using Western blots assays (FIG. 4B). […] Treatment of 5-FU and compounds 1a-1b increased the levels of cleavage of PARP1 and caspase 3 in MCF7 cells, as compared with that in the vehicle-treated controls. Therefore, prodrugs 1a-1b, similar to 5-FU, can induce MCF7 cell apoptosis, which might contribute to their pharmacological actions.

caspase 3 = test: Western blot of caspase 3 in MCF7 cells; type: cell-based, human; conditions: 48 h
Experimental: as §1
(§3) Western Blot Analysis. Treated cells were washed once with PBS and lysed with RIPA lysis buffer (Santa Cruz Biotechnology, SCBT, #24948) supplemented with sodium orthovanadate, PMSF, protease and phosphatase inhibitor cocktails (Sigma Aldrich). Cell lysates were centrifuge for 15 min at 14,000×g and the supernatant was used for immunoblotting. Protein concentration was normalized for the samples and resolved on a 10-13% SDS-PAGE gel. Following transfer to nitrocellulose membrane, specific mouse primary antibodies from SCBT (PARP1 #sc-8007, caspase 3 #sc-7272) and Cell Signaling (cleaved PARP1 #9541, cleaved caspase-3 #9664) were added and incubated overnight. Secondary antibodies corresponding to the host of the primary antibodies was further incubated with the membrane and washed three times to remove excess antibodies. Odyssey Fc Imaging System (LI-COR, Lincoln, Nebr.) was used to quantify the chemiluminescent of the proteins.
as §2

PARP1 = test: Western blot of PARP1 in MCF7 cells; type: cell-based, human; conditions: 48 h
Experimental: as §1, §3, §2

[2] = test system: wild-type C57BL/6 male mice; test: Acute toxicity in mice; type: in vivo; conditions: 100 mg/kg i.p. every other day for 15 days, C57BL/6 male mice
Experimental: FIGS. 5A and 5B illustrate the survival rate (FIG. 5A) and body weight (FIG. 5B) curves of the various groups of mice. […] Mice were treated every other day by intraperitoneal (i.p.) injection for 15 days, the survival and body weights of the mice were recorded after treatment.
Mice were treated every other day by intraperitoneal (i.p.) injection for 15 days, the survival and body weights of the mice were recorded after treatment.

[3] = test system: human colorectal cancer cells SW480; test: Anti-proliferative activity in SW480 cells; type: cell-based; conditions: 10 μM, compared to parent drug 6MP
Experimental: FIG. 12 illustrates the anticancer effects and selectivity of 6MP (10 μM), prodrugs YA6131 (10 μM) and YA6075 (10 μM), evaluated in human colorectal cancer cells SW480 and normal HEK293 cells.
Anticancer effects and selectivity of 6MP (10 μM), prodrugs YA6131 (10 μM) and YA6075 (10 μM): the anticancer activities of prodrugs YA6131 and YA6075 were evaluated in comparison to the parent drug 6MP using the human colorectal cancer cells SW480 and normal HEK293 cells (FIG. 12). […] Without wishing to be bound by any particular theory, it was reasoned that the difference of the anticancer effects of the two prodrugs were due to their different release kinetics of the two compounds in the particular cells used.

[4] = compared to vehicle-treated cells
[5] = compared to vehicle-treated controls

Chain of dihydropyrimidine dehydrogenase (DPD) (Q12882 4-1025): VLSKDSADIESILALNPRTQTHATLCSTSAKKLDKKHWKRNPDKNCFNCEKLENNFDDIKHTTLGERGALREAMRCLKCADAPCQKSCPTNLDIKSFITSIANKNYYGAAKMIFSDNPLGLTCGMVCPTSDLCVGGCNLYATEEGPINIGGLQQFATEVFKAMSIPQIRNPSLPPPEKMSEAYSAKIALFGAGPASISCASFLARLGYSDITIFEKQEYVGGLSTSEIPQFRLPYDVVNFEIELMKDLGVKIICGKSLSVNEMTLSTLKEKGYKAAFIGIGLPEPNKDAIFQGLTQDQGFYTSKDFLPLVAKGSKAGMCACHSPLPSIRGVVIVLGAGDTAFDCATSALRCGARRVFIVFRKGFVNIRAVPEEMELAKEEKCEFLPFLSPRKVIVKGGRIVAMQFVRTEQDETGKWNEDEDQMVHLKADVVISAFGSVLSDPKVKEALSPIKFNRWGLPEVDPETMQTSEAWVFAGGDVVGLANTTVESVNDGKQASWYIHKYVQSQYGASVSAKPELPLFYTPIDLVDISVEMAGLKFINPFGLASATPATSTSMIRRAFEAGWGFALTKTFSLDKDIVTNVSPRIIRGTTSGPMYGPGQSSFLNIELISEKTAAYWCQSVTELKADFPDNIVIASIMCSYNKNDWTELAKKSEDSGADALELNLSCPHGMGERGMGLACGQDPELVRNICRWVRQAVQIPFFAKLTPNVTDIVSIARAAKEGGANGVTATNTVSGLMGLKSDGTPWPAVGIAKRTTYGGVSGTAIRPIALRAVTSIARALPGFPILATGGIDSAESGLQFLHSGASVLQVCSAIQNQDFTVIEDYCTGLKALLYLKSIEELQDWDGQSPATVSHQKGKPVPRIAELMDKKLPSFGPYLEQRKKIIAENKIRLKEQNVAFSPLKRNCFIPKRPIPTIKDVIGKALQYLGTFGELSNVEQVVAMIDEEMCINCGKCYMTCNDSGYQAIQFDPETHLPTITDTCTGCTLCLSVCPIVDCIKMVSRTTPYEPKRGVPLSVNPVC

O=c1[nH]c(=O)n(Cc2ccccc2)cc1F [Compound 1c, 1-Benzyl-5-fluoropyrimidine-2,4(1H,3H)-dione]
antiproliferative activity / anticancer effects (breast cancer MCF7 cells): no obvious antiproliferative effects

O=c1[nH]cc(F)c(=O)[nH]1 [Compound 5-FU, 5-fluorouracil, reference compound]
share of injected doses deactivated by DPD [1]: more than 85%
γH2AX formation (γH2AX): enhanced
expression level of caspase 3 (caspase 3; [4]): significantly reduced
level of cleavage of caspase 3 (caspase 3; [5]): increased
expression level of PARP1 (PARP1; [4]): significantly reduced
level of cleavage of PARP1 (PARP1; [5]): increased
survival / animal death [2]: killed all mice on the twelfth day

CC1(C)OB(c2ccc(Cn3cnc4c(S)ncnc43)cc2)OC1(C)C [YA6075, 9-(4-(4,4,5,5-Tetramethyl-1,3,2-dioxaborolan-2-yl)benzyl)-9H-purine-6-thiol]
anti-proliferative activity [3]: reduced effect

CC1(C)OB(c2ccc(CSc3ncnc4[nH]cnc34)cc2)OC1(C)C [YA6131]
anti-proliferative activity [3]: similarly potent anti-proliferative activity as compared to 6MP

— patent US20220041627A1, “PRODRUGS OF ANTI-CANCER AND ANTI-AUTOIMMUNE DISEASES THERAPEUTIC AGENTS, AND METHODS OF MAKING AND USE THEREOF” (UNIVERSITY OF MARYLAND, BALTIMORE, priority 2018, published 2022)
